Experimental data: patent US20030129672A1, “Method for identifying metalloenzyme inhibitors” (priority 2001, published 2003)
Like-named read-outs stand apart in the source and are kept apart here.

What was measured:
Format in all cases: biochemical
MMP-13CD = MMP-13CD (Homo sapiens, UniProt P45452); experiment: Fluorigenic peptide-1 substrate based assay with and without acetohydroxamic acid, MMP-13CD; conditions: for IC50: MMP-13CD, FP1 substrate
Procedure: 50 mM HEPES buffer (pH 7.0)
2% DMSO (with or without inhibitor test compound)
Alternatively, an endpoint read can also be used to determine reaction velocity provided the initial fluorescence of the solution, as recorded before addition of enzyme, is subtracted from the final fluorescence of the reaction mixture. […] This determination was done for experiments done in the presence, and experiments done in the absence, of acetohydroxamic acid. Data were fit to the equation: […]

MMP-2 [1] = target: T1, MMP-2 (Homo sapiens, UniProt P08253); experiment: Fluorigenic peptide-1 substrate based assay with and without acetohydroxamic acid, MMP-2; conditions: MMP 2FL, FP1 substrate
T1 sequence (P08253 110-660): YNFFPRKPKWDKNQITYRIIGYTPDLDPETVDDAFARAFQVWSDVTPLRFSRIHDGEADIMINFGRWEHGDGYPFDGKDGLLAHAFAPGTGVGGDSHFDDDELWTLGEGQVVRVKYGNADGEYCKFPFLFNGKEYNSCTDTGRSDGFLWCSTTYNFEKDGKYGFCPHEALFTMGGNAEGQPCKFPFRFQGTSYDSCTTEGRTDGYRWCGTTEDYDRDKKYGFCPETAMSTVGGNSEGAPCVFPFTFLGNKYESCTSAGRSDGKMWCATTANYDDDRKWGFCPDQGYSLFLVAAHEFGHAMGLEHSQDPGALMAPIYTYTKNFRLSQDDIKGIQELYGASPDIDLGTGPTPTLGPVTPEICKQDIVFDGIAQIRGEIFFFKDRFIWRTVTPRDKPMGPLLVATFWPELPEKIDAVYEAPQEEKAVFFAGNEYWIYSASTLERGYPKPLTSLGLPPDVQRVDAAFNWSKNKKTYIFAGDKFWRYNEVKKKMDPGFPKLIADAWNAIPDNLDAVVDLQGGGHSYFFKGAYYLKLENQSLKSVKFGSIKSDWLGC

MMP-9 = MMP-9 (Homo sapiens, UniProt P14780); experiment: Fluorigenic peptide-1 substrate based assay with and without acetohydroxamic acid, MMP-9; conditions: MMP 9FL, FP1 substrate
MMP-9, sequence (P14780 94-707, species assumed): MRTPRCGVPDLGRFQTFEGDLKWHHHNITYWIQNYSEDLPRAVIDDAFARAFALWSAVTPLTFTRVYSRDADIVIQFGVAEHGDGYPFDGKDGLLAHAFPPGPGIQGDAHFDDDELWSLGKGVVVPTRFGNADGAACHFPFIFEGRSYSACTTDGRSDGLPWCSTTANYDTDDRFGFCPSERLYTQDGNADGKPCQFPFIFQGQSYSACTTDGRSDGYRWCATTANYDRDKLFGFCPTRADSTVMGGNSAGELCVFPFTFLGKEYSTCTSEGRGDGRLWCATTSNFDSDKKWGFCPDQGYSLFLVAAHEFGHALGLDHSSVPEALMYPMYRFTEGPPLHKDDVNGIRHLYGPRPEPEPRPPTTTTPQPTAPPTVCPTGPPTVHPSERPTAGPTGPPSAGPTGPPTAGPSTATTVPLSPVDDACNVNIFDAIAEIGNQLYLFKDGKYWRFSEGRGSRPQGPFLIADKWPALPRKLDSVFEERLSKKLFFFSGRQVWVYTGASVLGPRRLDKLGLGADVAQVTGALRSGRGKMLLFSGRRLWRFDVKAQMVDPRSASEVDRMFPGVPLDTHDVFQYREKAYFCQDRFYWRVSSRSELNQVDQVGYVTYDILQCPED

MMP-2 [2] = target: T1, MMP-2; experiment: Steady-state kinetics of the mechanism of inhibition of MMP-2 (FIG. 1); conditions: 6 concentrations from 0 nanomolar to 600 nanomolar, 1/V0 versus 1/[S]
Excerpt: FIG. 1 is a graph that plots 1 over the initial velocity VO, which is the initial rate of product formation in a steady state kinetics assay, on the Y-axis versus 1 over concentration of substrate [S] used in the assay on the X-axis for inhibition of MMP-2 with N-[(3-phenylisoxazol-5-ylmethyl)-aminothiocarbonyl]-benzamide at 6 concentrations of from 0 nanomolar to 600 nanomolar.
In FIG. 1, 1 over the initial velocity VO, which is the initial rate of product formation in a steady state kinetics assay, is plotted on the Y-axis versus 1 over concentration of substrate [S] used in the assay on the X-axis for inhibition of MMP-2 with N-[(3-phenylisoxazol-5-ylmethyl)-aminothiocarbonyl]-benzamide at 6 concentrations of from 0 nanomolar to 600 nanomolar.

[3] = 0 mM acetohydroxamic acid, read-out: Without AcNHOH IC50
[4] = 15 mM acetohydroxamic acid (1 Kd), read-out: With AcNHOH IC50
[5] = about 1 Kd of acetohydroxamic acid, read-out: With AcNHOH IC50
[6] = no acetohydroxamic acid, read-out: Without AcNHOH IC50

Compound | IC50 (MMP-13CD; [3]) [µM] | IC50 (MMP-13CD; [4]) [µM] | other results
COc1ccc(NC(=O)Nc2ccc3nc(C)cc(N)c3c2)cc1 [Entry 3] | 126 | 71 | –
Nc1ccc(-c2ccc(S(N)(=O)=O)cc2)cc1 [Entry 1] | 34 | 16 | –
NS(=O)(=O)c1ccc(-c2ccc([N+](=O)O)cc2)cc1 [Entry 2] | 84 | 3.1 | –
CC(=O)NO [acetohydroxamic acid, reference compound] | – | – | Kd (MMP-13CD): 15000 µM
Cc1c(-c2ccc(-n3ccnc3)cc2)[nH][nH]c1=O [Entry 5] | 9.5 | 11 | –
COc1ccc(C(=O)NCc2cccnc2)cc1C(=O)NCc1cccnc1 [Entry 7] | 27 | 11 | –
Cc1cc(O)nc(SCc2ccc(Cl)cc2)n1 [Entry 4] | 64 | 4.7 | –
O=C(NC(=S)NCc1cc(-c2ccccc2)no1)c1ccccc1 [N-[(3-phenylisoxazol-5-ylmethyl)-aminothiocarbonyl]-benzamide] | – | – | IC50 (MMP-2 [1]; [5]): 0.09 µM; IC50 (MMP-2 [1]; [6]): 0.9 µM; IC50 (MMP-9; [5]): 1.2 µM; IC50 (MMP-9; [6]): 3.1 µM; Mechanism of inhibition of MMP-2 by steady-state kinetics (MMP-2 [2]): uncompetitive inhibitor
CCOC(=O)/C=C/c1ccc(-n2ccnc2)cc1 [Entry 6] | 17 | 14 | –
